Columns and labels:
[1] = Pharmacokinetic study in rats, intragastric administration; type: in vivo; details: rat, plasma, po, Male SD rats, i.g., vehicle 5% Solutol
Experimental: SPF-grade male SD rats weighing 160 to 320 g were divided into 2 groups, with 3 rats per group [Source: Beijing Vital River Laboratory Animal Technology Co., Ltd., Certificate No.: 1103242011040898].
Formulation and dosing: According to the drug concentration and dosing requirements in Table 15 below, the API was accurately weighed and added to the required volume of 5% Solutol. The mixture was vortexed for 2 minutes, then sonicated for 10 minutes, and stirred for 1 hour before administration. Table 15: Formulation and dosing regimen for API pharmacokinetic study
SPF-grade male SD rats weighing 160 to 320 g were divided into 6 groups, with 3 rats per group [Source: Beijing Vital River Laboratory Animal Technology Co., Ltd., Certificate No.: 110011210113195883 (male)].
Formulation and dosing: 80 mg of the corresponding sample in the table below was accurately weighed, dispersed in the required volume of pure water, vortexed for 5 minutes, and administered intragastrically (i.g.). The experimental dosing was scaled proportionally based on animal body weight and dosing concentration.
After administration to the SD rats in each group of Experimental Preparation 1 and Experimental Preparation 2, approximately 0.2 to 0.3 mL of blood samples were collected from the orbital venous plexus at 0.167, 0.5, 1, 2, 3, 4, 6, 8, 10, and 24 hours post-dosing, and transferred to an anticoagulant EP tube (containing 4 µL of EDTA-K2, 375 mg/mL), which was gently inverted three times, stored in an ice box (no more than 30 minutes), centrifuged at 3500 × g for 10 minutes at 4°C, and plasma supernatant was transferred to a labeled EP tube. Hemolysis was observed and recorded, followed by bioanalytical testing.
Sample pretreatment: 40 µL of sample was mixed with 160 µL of acetonitrile containing 0.1% FA and 200 ng/mL mixed internal standard to precipitate proteins. The mixture was vortexed thoroughly and centrifuged at 13,000 rpm for 10 minutes at 4°C.
110 µL of the supernatant was transferred to another 96-well deep-well plate, followed by addition of 110 µL of a mixture of methanol and water (1:3, v:v) containing 0.1% FA. The mixture was shaken for 10 minutes and analyzed using an LC-MS/MS system. The system employed a Sciex Exion LC AD high-performance liquid chromatography system with an XBridge BEH C18 (2.1 × 50 mm, 2.5 µm) column for gradient elution and an AB Sciex Qtrap 4500 mass spectrometer for analysis. The mass spectrometer employed an electrospray ionization (ESI) source in positive ion mode to monitor Tolbutamide, with precursor ion to product ion transitions with mass-to-charge ratios (m/z) of 415.1→263.1 and 271.1→155, respectively.
Data were analyzed using WinNonlin (version 5.2.1, Pharsight, Mountain View, CA) with a non-compartmental model to obtain PK parameters (Cmax, Tmax, T1/2, AUClast, etc.). Table 15: Pharmacokinetic data of some solid dispersions

[2] = Solubilization test of compound 1 with surfactants in FaSSIF; type: physicochemical; details: for Concentration of API in vehicle: FaSSIF (pH 6.5), 37°C
Experimental: 50 mg of compound 1 was weighed into 5 mL of FaSSIF medium containing 5 mg of different surfactants (target concentration of API (compound 1): 10 mg/mL). The mixture was shaken at 500 rpm and 37°C. 0.5 mL each of the suspension samples was taken at 0.5 hours, 1 hour, 2 hours, and 4 hours, respectively, centrifuged at 14,000 rpm for 5 minutes, and the supernatant was diluted and analyzed by HPLC. Table 1: Solubility results of compound 1 in FaSSIF containing 10% of surfactant by weight

SMILES: NS(=O)(=O)c1cc(NC(=O)Cc2ccccc2Cl)cc2nn(C(F)F)cc12 [compound 1]
- AUC(0-t) ([1]; 30.00 mg/kg): 10800 ng·h/mL
- Cmax ([1]; 30.00 mg/kg): 2760 ng/mL
- Tmax ([1]; 30.00 mg/kg): 40.2 min
- half-life ([1]; 30.00 mg/kg): 319 min
- AUC(0-t) ([1]; 300.00 mg/kg): 14700 ng·h/mL
- Cmax ([1]; 300.00 mg/kg): 2360 ng/mL
- Tmax ([1]; 300.00 mg/kg): 60 min
- half-life ([1]; 300.00 mg/kg): 828 min
- Concentration of API in vehicle ([2]; Cremophor EL 5 mg, 0.5 h): 1574.3 µg/mL
- Concentration of API in vehicle ([2]; Cremophor EL 5 mg, 1 h): 1604.3 µg/mL
- Concentration of API in vehicle ([2]; Cremophor EL 5 mg, 2 h): 1538.6 µg/mL
- Concentration of API in vehicle ([2]; Cremophor EL 5 mg, 4 h): 1508.2 µg/mL
- Concentration of API in vehicle ([2]; Cremophor RH40 5 mg, 0.5 h): 1583.3 µg/mL
- Concentration of API in vehicle ([2]; Cremophor RH40 5 mg, 1 h): 1604.5 µg/mL
- Concentration of API in vehicle ([2]; Cremophor RH40 5 mg, 2 h): 1567.0 µg/mL
- Concentration of API in vehicle ([2]; Cremophor RH40 5 mg, 4 h): 1539.4 µg/mL
- Concentration of API in vehicle ([2]; Poloxamer 188 5 mg, 0.5 h): 115.6 µg/mL
- Concentration of API in vehicle ([2]; Poloxamer 188 5 mg, 1 h): 123.3 µg/mL
- Concentration of API in vehicle ([2]; Poloxamer 188 5 mg, 2 h): 104.0 µg/mL
- Concentration of API in vehicle ([2]; Poloxamer 188 5 mg, 4 h): 93.9 µg/mL
- Concentration of API in vehicle ([2]; Poloxamer 407 5 mg, 0.5 h): 838.4 µg/mL
- Concentration of API in vehicle ([2]; Poloxamer 407 5 mg, 1 h): 860.7 µg/mL
- Concentration of API in vehicle ([2]; Poloxamer 407 5 mg, 2 h): 842.0 µg/mL
- Concentration of API in vehicle ([2]; Poloxamer 407 5 mg, 4 h): 796.7 µg/mL
- Concentration of API in vehicle ([2]; SLS 5 mg, 0.5 h): 614.0 µg/mL
- Concentration of API in vehicle ([2]; SLS 5 mg, 1 h): 622.0 µg/mL
- Concentration of API in vehicle ([2]; SLS 5 mg, 2 h): 639.0 µg/mL
- Concentration of API in vehicle ([2]; SLS 5 mg, 4 h): 652.0 µg/mL
- Concentration of API in vehicle ([2]; Solutol HS15 5 mg, 0.5 h): 1465.9 µg/mL
- Concentration of API in vehicle ([2]; Solutol HS15 5 mg, 1 h): 1501.6 µg/mL
- Concentration of API in vehicle ([2]; Solutol HS15 5 mg, 2 h): 1480.7 µg/mL
- Concentration of API in vehicle ([2]; Solutol HS15 5 mg, 4 h): 1456.3 µg/mL
- Concentration of API in vehicle ([2]; Tween 80 5 mg, 0.5 h): 899.3 µg/mL
- Concentration of API in vehicle ([2]; Tween 80 5 mg, 1 h): 893.1 µg/mL
- Concentration of API in vehicle ([2]; Tween 80 5 mg, 2 h): 888.5 µg/mL
- Concentration of API in vehicle ([2]; Tween 80 5 mg, 4 h): 886.6 µg/mL
- Concentration of API in vehicle ([2]; VE-TPGS 5 mg, 0.5 h): 2113.7 µg/mL
- Concentration of API in vehicle ([2]; VE-TPGS 5 mg, 1 h): 2122.7 µg/mL
- Concentration of API in vehicle ([2]; VE-TPGS 5 mg, 2 h): 2089.3 µg/mL
- Concentration of API in vehicle ([2]; VE-TPGS 5 mg, 4 h): 2077.5 µg/mL
- Concentration of API in vehicle ([2]; no surfactant, 0.5 h): 33.9 µg/mL
- Concentration of API in vehicle ([2]; no surfactant, 1 h): 22.9 µg/mL
- Concentration of API in vehicle ([2]; no surfactant, 2 h): 15.2 µg/mL
- Concentration of API in vehicle ([2]; no surfactant, 4 h): 14.9 µg/mL
- solubility of compound 1 ([2]; with surfactants SLS, Cremophor EL, Cremophor RH40, VE-TPGS, Tween 80, Poloxamer 407, and Solutol HS15): significantly improved
